Publication PMC11238290, “Anti-Staphy Peptides Rationally Designed from Cry10Aa Bacterial Protein” (ACS Omega, 2024)
Where a SMILES comes first, the peptide text is derived from it.

Tests used:
[1] = Peptide stability in human serum by RP-HPLC; type: in vitro ADME; settings: human serum (male AB plasma, Sigma-Aldrich), serum:peptide 5:1 v/v, peptide 256 μM, 37 °C, RP-HPLC Venusil ASB C18, PDA 216 nm; for relative peak area (%), peptide remaining in human serum, 6 h: 360 min; for peptide remaining in human serum, 24 h: triplicate
Protocol: (§1) The stability of peptides AMPCry10Aa, AMPCry10Aa_1, and AMPCry10Aa_5, against serum proteases was evaluated as previously described.[86],[87] Aliquots of filtered human serum from male AB plasma from Sigma-Aldrich were mixed with each peptide to a final concentration of 256 μM in a 5:1 v/v ratio. Each aliquot was then incubated at 37 °C, and 200 μL was collected for analysis of peptide degradation at 0, 2, 4, 6, 12, and 24 h. The samples were analyzed by reversed-phase high-performance liquid chromatography (RP-HPLC) with a Shimadzu LC system (Kyoto, Japan) using LC Solution software. A gradient method and a Venusil ASB C18 column (250 mm × 4.6 mm, 5 μm, Bonna-Agela Technologies) with an injection volume of 15 μL were used. A segmented gradient was applied with a constant flow rate of 1.0 mL min^–1 and PDA detection at 216 nm using water and acetonitrile eluents as the mobile phase. The peptide amount was quantified by subtracting the relative area of each analyzed time peak from the initial control peak area. All assays were performed in triplicate.

[2] = system: serum proteases; experiment: Peptide stability in human serum by RP-HPLC; type: in vitro ADME; settings: human serum (male AB plasma, Sigma-Aldrich), serum:peptide 5:1 v/v, peptide 256 μM, 37 °C, RP-HPLC Venusil ASB C18, PDA 216 nm, mean ± SD of three replicates; for remaining at 2 h, 256 μM: read-out: relative peak area (%), peptide remaining in human serum, 2 h; for remaining at 4 h, 256 μM: read-out: relative peak area (%), peptide remaining in human serum, 4 h; for remaining at 6 h, 256 μM: read-out: relative peak area (%), peptide remaining in human serum, 6 h; for remaining at 12 h, 256 μM: read-out: relative peak area (%), peptide remaining in human serum, 12 h
Protocol: as §1

[3] = Solubility observed in the aqueous EPR treatment solution; type: physicochemical; settings: 100 μg of peptide in 50 μL of PBS (EPR treatment); observation
Text: The EPR spectra (Figure 8A) indicate that the spin probe was structured in very rigid membranes, presenting 2A∥ values of ∼62 to ∼63 G, much higher than those found for the Leishmania parasite (∼54 G).[73]−[76] […] Pronounced increases in lipid fluidity generally create disorder in the lipid chains packaging, especially at lipid–protein interfaces, where they increase the likelihood of pore formation that could lead to electrolyte leakage and permeation of small molecules.[77]
Peptides' immediate effects on bacteria’s outermost membrane fluidity were analyzed by EPR spectroscopy. The bacteria in culture (1 × 10^9 CFU) were centrifuged and resuspended in 50 μL of PBS containing 100 μg of peptide. After 20 min of incubation, the sample was spin-labeled for the EPR experiment. To incorporate the spin label into the bacterial membranes, a 5 mg·mL^–1 ethanolic solution containing the spin label 5-doxyl stearic acid (5-DSA, Sigma-Aldrich, St. Louis, MO, USA) was added to each sample. Immediately after spin labeling, the sample was transferred to a 1 mm i.d. capillary tube, which was flame-sealed on one side. The capillary was centrifuged at 25,000 × g for 5 min, and the cell pellet of approximately 2 mm was placed in the center of the resonance cavity. […]

| Structure (SMILES) | relative peak area (%), peptide remaining in human serum, 0 h ([1]; mean ± SD of three replicates) [%] | relative peak area (%), peptide remaining in human serum, 6 h ([1]; mean ± SD of three replicates) [%] | relative peak area (%), peptide remaining in human serum, 12 h ([1]; mean ± SD of three replicates) | peptide remaining in human serum, 24 h [1] | remaining at 2 h, 256 μM [2] [%] | remaining at 4 h, 256 μM [2] [%] | remaining at 6 h, 256 μM [2] [%] | remaining at 12 h, 256 μM [2] [%] | relative peak area (%), peptide remaining in human serum, 2 h ([1]; 2 h, mean ± SD of three replicates) | solubility in the aqueous treatment solution [3] |
| --- | --- | --- | --- | --- | --- | --- | --- | --- | --- | --- |
| CC[C@H](C)[C@H](NC(=O)[C@H](C)NC(=O)[C@@H](NC(=O)[C@@H](NC(=O)[C@@H](NC(=O)[C@@H](NC(=O)[C@@H](NC(=O)[C@H](CCCCN)NC(=O)[C@H](CC(C)C)NC(=O)[C@H](CC(N)=O)NC(=O)[C@H](CC(=O)O)NC(=O)[C@@H](N)CCCCN)[C@@H](C)O)[C@@H](C)CC)[C@@H](C)CC)C(C)C)[C@@H](C)O)C(=O)N[C@@H](CCCCN)C(=O)N[C@@H](CC(N)=O)C(=O)N[C@H](C(=O)N[C@@H](CC(C)C)C(=O)N[C@@H](CC(=O)O)C(=O)N[C@@H](CCCCN)C(=O)N[C@@H](Cc1ccc(O)cc1)C(=O)N[C@@H](CCC(N)=O)C(N)=O)[C@@H](C)CC [AMPCry10Aa_1] (H-KDNLKTIIVTAIKNILDKYQ-NH2) | 96.93 ± 0.51 | 58.96 ± 2.33 | trace | no longer detectable | 81.8 ± 1.54 | 74.7 ± 1.98 | 60 | 4.37 ± 1.32 |  |  |
| CC[C@H](C)[C@H](N)C(=O)N[C@H](C(=O)N[C@@H](CC(N)=O)C(=O)N[C@H](C(=O)N[C@@H](CCCCN)C(=O)N[C@H](C(=O)N[C@@H](CO)C(=O)N[C@@H](CC(C)C)C(=O)N[C@@H](CCCCN)C(=O)N[C@H](C(=O)N[C@H](C(=O)N[C@H](C(=O)N[C@@H](CCCCN)C(=O)N[C@@H](CC(N)=O)C(=O)N[C@@H](C)C(=O)N[C@@H](CC(C)C)C(=O)N[C@@H](CC(=O)O)C(=O)N[C@@H](CCCCN)C(=O)N[C@H](C(=O)N[C@@H](CCC(N)=O)C(N)=O)[C@@H](C)CC)[C@@H](C)CC)[C@@H](C)CC)[C@@H](C)O)[C@@H](C)O)C(C)C)[C@@H](C)CC [AMPCry10Aa_5] (H-IINVKTSLKTIIKNALDKIQ-NH2) | 92.83 ± 3.33 | 36.73 ± 1.84 | trace | no longer detectable | 81.6 ± 2.21 | 68.8 ± 0.99 | 40 | 8.11 ± 3.65 |  |  |
| CC[C@H](C)[C@H](N)C(=O)N[C@H](C(=O)N[C@@H](CC(N)=O)C(=O)N[C@H](C(=O)N[C@@H](CC(C)C)C(=O)N[C@H](C(=O)N[C@@H](CO)C(=O)N[C@H](C(=O)N[C@H](C(=O)N[C@H](C(=O)N1CCC[C@H]1C(=O)N[C@H](C(=O)N[C@@H](CCCCN)C(=O)N[C@@H](CC(N)=O)C(=O)N[C@@H](CCC(N)=O)C(=O)N[C@@H](CC(C)C)C(=O)N[C@@H](CC(=O)O)C(=O)N[C@@H](CCCCN)C(=O)N[C@@H](Cc1ccc(O)cc1)C(=O)N[C@@H](CCC(N)=O)C(N)=O)[C@@H](C)CC)[C@@H](C)O)C(C)C)[C@@H](C)CC)[C@@H](C)O)C(C)C)[C@@H](C)CC [AMPCry10Aa] (H-IINVLTSIVTPIKNQLDKYQ-NH2) | 92.2 ± 3.23 |  | no longer detectable |  | 39.6 ± 2.44 | 18.6 ± 2.76 | ~0 |  | about 40% | did not dissolve |
